Test results from patent US5496697A, “Methods and apparatus for detecting the effect of cell affecting agents on living cells” (priority 1993, dated 1996).

How the values were obtained:
MDCK cells = assay: metabolic rate of MDCK cells grown on the silicon sensor surface; type: cell-based, canine; details: 3 μM epinephrine, primary introduction
Dx5 = details: previously characterized; cited from earlier work

Compound	change of metabolic rate vs. control rate (MDCK cells)	resistance of Dx5 (Dx5)
CNC[C@H](O)c1ccc(O)c(O)c1 [epinephrine]	did not significantly alter the metabolic rate	
COc1cccc2c1C(=O)c1c(O)c3c(c(O)c1C2=O)C[C@@](O)(C(=O)CO)C[C@@H]3O[C@H]1C[C@H](N)[C@H](O)[C@H](C)O1 [doxorubicin]		resistant
CC[C@]1(O)C[C@H]2CN(CCc3c([nH]c4ccccc34)[C@@](C(=O)OC)(c3cc4c(cc3OC)N(C=O)[C@H]3[C@@](O)(C(=O)OC)[C@H](OC(C)=O)[C@]5(CC)C=CCN6CC[C@]43[C@@H]65)C2)C1 [vincristine]		resistant
